Measurements as given in patent publication US20260070887A1 (Shenzhen Zhongge Biological Technology Co., Ltd., priority 2022, published 2026).
Read-outs that look alike come from different tables or passages of the source.

How the values were obtained:
Format in all cases: cell-based
[1] = target: hERG channel (Homo sapiens (Human), UniProt Q12809); experiment: hERG manual patch clamp test
Description: The cells used in this test were the HEK293 cell line transfected with hERG cDNA and stably expressing the hERG channel (#60187, supplied by BPS, passages P3-P23 for experimental studies). The cells were cultured in a medium containing the following components: MEM medium containing 10% (v/v) inactivated fetal calf serum, 1 mM sodium pyruvate, 500 μg/ml geneticin, 0.1 mM non-essential amino acids, and 100 U/m1 penicillin/streptomycin. HEK293 hERG cells were grown in a culture dish containing the above-mentioned medium, cultured in a 37° C., 5% CO2 incubator, and passaged approximately three times per week, with the cell fusion rate between 40% and 80%. 24 to 48 hours prior to electrophysiological experiments, HEK293 hERG cells were transferred to 0.05 mg/ml PDL-pretreated slides, seeded at a density of 1×10^4 cells per well in a 48-well plate, and grown in the same medium and under the same culture conditions. The density of HEK293 hERG cells on each circular slide needs to reach the requirement that most cells are independent and individual. The extracellular fluid components used in the hERG assay were as follows (mM): 145 NaCl, 4 KCl, 2 CaCl2, 1 MgCl2, 10 glucose, and 10 HEPES (pH adjusted to 7.40 with NaOH). The intracellular fluid components were as follows (mM): 130 KCl, 2 MgCl2, 5 EGTA, 10 HEPES and 5 Na2ATP (pH adjusted to 7.25 with KOH). […] Prior to the experiment, the compound was first serially diluted with DMSO to prepare stock solutions at 10, 3, 1, 0.3, and 0.1 mM, which were then further diluted with extracellular fluid to achieve the final test concentrations (in μM). The final concentration of DMSO in compound solutions at various concentrations was between 0.1% and 0.3%. All compound solutions are routinely sonicated for 5 to 10 min and shaken sufficiently to ensure complete dissolution of the compound, and all test solutions are mixed well by rotation for at least 10 min.
Electrophysiological tests were performed using a manual patch clamp system (HEKA EPC-10 signal amplifier and digital conversion system, HEKA Electronics, Germany) for the recording of whole cell currents. The specific test method was described as follows: Circular slides with […] hERG cells growing on the surface were placed in an electrophysiological recording chamber under an inverted microscope. The recording chamber was continuously perfused with extracellular fluid (at approximately 1 mL/min). The conventional whole-cell patch-clamp technique was employed for current recordings throughout the experiment. If not specified, the experiments were carried out at normal room temperature (about 25° C.). The cells were clamped at −80 mV. The cell clamp voltage was depolarized to +30 mV to activate the hERG potassium channel, and then clamped to −50 mV after 5 seconds to eliminate inactivation and produce a tail current. The peak tail current value was used as a value for the magnitude of the hERG current. The potassium current of hERG recorded in the above steps was stabilized by continuous extracellular fluid perfusion in the recording chamber, and the drug to be tested was continuously perfused until the inhibitory effect of the drug on hERG currents had stabilized. The coincidence of the most recent three consecutive current recording traces was typically taken as the criteria for determining whether steady-state conditions were achieved.
Dose-response curves of the test compounds were plotted with % hERG inhibition rate as the y-axis and test compound concentration as the x-axis, to calculate the IC50 values.

[2] = system: HCC1395 cells; experiment: HCC1395 cell proliferation (Cell Titer-Glo, 6 days); details: KIF18A-insensitive tumor cells
Description: (§1) The inhibitory effect on the KIF18A target by the compounds of the present disclosure was evaluated by testing the inhibitory effect on proliferation of HCC1954 and HCC1395 cells by the compounds of the present disclosure.
(§2) HCC1954 (ATCC, CRL-2388) and HCC1395 (ATCC, CRL-2324) cells were cultured separately in RPMI-1640 complete medium (Gibco, A1049101) containing 20% fetal bovine serum (Gibco, 10099141C), 100 U penicillin, and 100 μg/mL streptomycin (Gibco, 15140-122). The Promega kit Cell Titer-Glo (Promega: G7572) was used in this method for test. • 1. HCC1954 (KIF18A-sensitive tumor cells) and HCC1395 (KIF18A-insensitive tumor cells) were cultured separately in T75 cell culture flasks (Corning, 430641), and the medium was placed in a 37° C., 5% CO2 incubator. • 2. When the cell density reached 70% to 80% (about 2 to 3 times per week), cells are passaged with trypsin (0.25% EDTA). • 3. The cell culture flask was taken out and the cells were separated by adding 2 mL of trypsin (0.25% EDTA source) for 5 minutes. • 4. Digestion was stopped by adding 8 mL of RPM1-1640 medium and the cell suspension was transferred to a centrifuge tube and centrifuged at 1000 rpm for 5 minutes. • 5. The cells were resuspended with 5 mL of RPMI-1640 medium. Cell density was adjusted to 5×10^3/mL (HCC1954), and 2.5×10^4/mL (HCC1395), respectively. • 6. 40 μL of cell solution was added to the 384-well plate (Corning, 3765). • 7. The 384-well plate was centrifuged at 1000 rpm for 1 minute. • 8. The cells were cultured overnight in a 37° C., 5% CO2 incubator. • 9. The next day, 40 nL of compound solution was added to the 384-well plate using Echo650. The plate was then placed in a 37° C., 5% CO2 incubator for 6 days. • 10. After 6 days, 20 μL of Cell-Titer-Glo (Promega, G7572) reagent was added per well. • 11. Luminescence values were measured using the EnVision Xcite Multilabel Reader (PerkinElmer, 2105-0020).
(§3) The percentage of inhibition of cell proliferation by the test compound at each concentration was calculated by comparing with the values of the control group (0.1% DMSO). The IC50 values of the compounds were obtained by concentration-inhibition rate nonlinear regression analysis of the test compounds using GraphPad Prism 9.

[3] = system: HCC1954 cells; experiment: HCC1954 cell proliferation (Cell Titer-Glo, 6 days); details: KIF18A-sensitive tumor cells
Description: as §1, §2, §3

[4] = HEK293 cells stably expressing hERG, whole-cell patch clamp, read-out: hERG IC50

Chain of hERG channel (Q12809 whole entry, the tested form may be a part): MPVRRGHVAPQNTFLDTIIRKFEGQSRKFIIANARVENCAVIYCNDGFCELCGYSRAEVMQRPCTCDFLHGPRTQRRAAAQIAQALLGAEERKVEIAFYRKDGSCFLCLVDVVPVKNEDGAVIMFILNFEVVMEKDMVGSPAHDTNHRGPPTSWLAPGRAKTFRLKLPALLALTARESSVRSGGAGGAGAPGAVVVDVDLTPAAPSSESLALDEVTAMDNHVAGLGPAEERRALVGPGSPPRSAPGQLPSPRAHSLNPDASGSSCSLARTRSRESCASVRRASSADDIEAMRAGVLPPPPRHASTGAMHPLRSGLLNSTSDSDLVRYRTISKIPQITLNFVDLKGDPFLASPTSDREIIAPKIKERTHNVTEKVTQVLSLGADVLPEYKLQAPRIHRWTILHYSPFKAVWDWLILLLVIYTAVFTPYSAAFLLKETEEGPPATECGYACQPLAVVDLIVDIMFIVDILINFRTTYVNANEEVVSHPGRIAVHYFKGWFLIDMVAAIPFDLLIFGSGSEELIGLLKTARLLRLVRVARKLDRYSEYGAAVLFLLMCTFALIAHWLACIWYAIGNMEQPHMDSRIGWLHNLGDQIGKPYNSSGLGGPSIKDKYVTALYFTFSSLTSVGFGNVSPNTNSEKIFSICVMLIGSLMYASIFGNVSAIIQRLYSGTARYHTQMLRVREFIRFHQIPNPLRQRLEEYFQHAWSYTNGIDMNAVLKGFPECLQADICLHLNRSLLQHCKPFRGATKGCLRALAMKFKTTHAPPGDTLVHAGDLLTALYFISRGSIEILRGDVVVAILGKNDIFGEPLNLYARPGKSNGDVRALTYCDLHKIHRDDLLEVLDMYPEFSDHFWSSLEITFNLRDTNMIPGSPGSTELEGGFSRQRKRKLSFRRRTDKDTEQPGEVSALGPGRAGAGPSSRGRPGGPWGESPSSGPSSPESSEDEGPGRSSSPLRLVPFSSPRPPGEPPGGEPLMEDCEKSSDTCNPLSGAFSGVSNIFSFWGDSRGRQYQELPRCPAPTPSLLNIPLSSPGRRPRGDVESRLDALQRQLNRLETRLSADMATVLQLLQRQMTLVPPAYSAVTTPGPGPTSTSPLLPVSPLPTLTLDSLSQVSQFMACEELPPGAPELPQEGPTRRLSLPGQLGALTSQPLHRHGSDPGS

Row | SMILES | IC50 [1, 4] | IC50 [2] | IC50 [3] | also measured
1 | O=C(Nc1cccc2c1cc1n2CCOC1)c1ccc(NS(=O)(=O)CCO)cc1N1CCC(=C(F)F)CC1 [Example 319, 2-(4-difluoromethylene)piperidin-1-yl-N-(3,4-dihydro-1H-[1,4]oxazino[4,3-a]indol-9-yl)-4-((2-hydroxyethyl)sulfonamide) benzamide] | > 10 µM | > 5 µM | 0.01 to 0.5 µM | 
2 | COc1ccc(NC(=O)c2ccc(NS(=O)(=O)CCO)cc2N2CCC(=C(F)F)CC2)c2cc3n(c12)CC(C)(C)OC3 [Example 465, 2-(4-(difluoromethylene)piperidin-1-yl)-4-((2-hydroxyethyl)sulfonamido)-N-(6-methoxy-3,3-dimethyl-3,4-dihydro-1H-[1,4]oxazinyl[4,3-a]indol-9-yl)benzamide] | > 10 µM |  |  | 
3 | Nc1cc(NS(=O)(=O)CCO)cc(N2CCC3(CC2)CC3)c1C(=O)Nc1cccc(N2CCC(F)(F)CC2)c1 [Example 1, 2-amino-N-(3-(4,4-difluoropiperidin-1-yl)phenyl)-4-((2-hydroxyethyl)sulfonamide)-6-(6-azaspiro[2.5]octan-6-yl)benzamide] |  | > 5 µM | ≤ 0.01 µM | 
4 | CC1(C)Cn2c(cc3c(NC(=O)c4ccc(NS(=O)(=O)CCO)cc4N4CCC5(CC4)CC5)ccc(OC(F)F)c32)CO1 [Example 523] | > 10 µM |  |  | 
5 | CC1(C)Cn2c(cc3c(NC(=O)c4ccc(NS(=O)(=O)CCO)cc4N4CCC5(CC4)CC5)cccc32)CO1 [Example 371, N-(3,3-dimethyl-3,4-dihydro-1H-[1,4]oxazino[4,3-a]indol-9-yl)-4-(2-hydroxyethylsulfonamido)-2-(6-azaspiro[2.5]octan-6-yl)benzamide] | > 10 µM |  |  | 
6 | COc1ccc(NC(=O)c2ccc(NS(=O)(=O)CCO)cc2N2CCC3(CC2)CC3)c2cc3n(c12)CC(C)(C)OC3 [Example 455, 4-((2-hydroxyethyl)sulfonamido)-N-(6-methoxy-3,3-dimethyl-3,4-dihydro-1H-[1,4]oxazinyl[4,3-a]indol-9-yl)-2-(6-azaspiro[2.5]oct-6-yl)benzamide] |  |  |  | IC50 [1]: > 10 µM
7 | O=C(Nc1cccc2c1cc1n2CCOC1)c1ccc(NS(=O)(=O)CCO)cc1N1CCC2(CC1)CC2 [Example 235, N-(3,4-dihydro-1H-[1, 4]oxazino[4,3-a]indol-9-yl)-4-(2-hydroxyethylsulfonamido)-2-(6-azaspiro[2.5]octan-6-yl)benzamide] | 9.84 µM |  |  | IC50 ([2]; Homo sapiens, HCC1395, 144 h): > 5 µM; IC50 ([3]; Homo sapiens, HCC1954, 144 h): ≤ 0.01 µM
8 | CC1(C)Cn2c(cc3c(NC(=O)c4ccc(NS(=O)(=O)CCO)cc4N4CCC(=C(F)F)CC4)cccc32)CO1 [Example 370, 2-(4-(difluoromethylene)piperidin-1-yl)-N-(3,3-dimethyl-3,4-dihydro-1H-[1,4]oxazino[4,3-a]indol-9-yl)-4-((2-hydroxyethyl)sulfonamido)benzamide] | > 10 µM |  |  | 
9 | CNc1cc(NS(=O)(=O)CCO)cc(N2CCC3(CC2)CC3)c1C(=O)Nc1cc(C)nc(N2CCC(F)(F)CC2)n1 [Example 4, N-(2-(4,4-difluoropiperidin-1-yl)-6-methylpyrimidin-4-yl)-4-(2-hydroxyethylsulfonamide)-2-methylamino-6-(6-azaspiro[2.5]octan-6-yl)benzamide] |  | > 5 µM | ≤ 0.01 µM | 
